Test results as given in ChEMBL document CHEMBL1155000, “Discovery of a novel series of Notch-sparing gamma-secretase inhibitors” (Bioorg Med Chem Lett, 2008).

Experiments:
[1] = Inhibition of gamma-secretase expressed in CHO cells expressing wild type human recombinant APP assessed as reduction in amyloid beta40 production
[2] = (§1) Inhibition of mouse notch expressed in CHO cells assessed as transactivation of soluble alkaline phosphatase reporter system; type: cell-based
[3] = Selectivity ratio of EC50 for gamma-secretase to EC50 for mouse notch
[4] = system: CHO; assay: as §1; type: cell-based

Row | Compound | EC50 [1] | further results
1 | CC[C@H](C)[C@@H](CO)NS(=O)(=O)c1ccc(Cl)c(Cl)c1 | 37 µM | –
2 | CC[C@H](C)[C@@H](CO)NS(=O)(=O)c1ccc(C#N)cc1 | > 100 µM | –
3 | CC[C@H](C)[C@@H](CO)NS(=O)(=O)Nc1ccc(Cl)cc1 | > 30 µM | –
4 | CC[C@H](C)[C@@H](CO)NS(=O)(=O)c1cc(Cl)cc(Cl)c1 | 23.5 µM | –
5 | C[C@@H](CO)NS(=O)(=O)c1ccc(Cl)cc1 | > 100 µM | –
6 | CC[C@H](C)[C@@H](CO)NC(=O)Nc1ccc(Cl)cc1 | 47.3 µM | –
7 | O=S(=O)(N[C@H](CO)c1ccccc1)c1ccc(Cl)cc1 | 68.8 µM | –
8 | CC[C@@H](CO)NS(=O)(=O)c1ccc(Cl)cc1 | > 100 µM | –
9 | CC[C@H](C)[C@@H](CO)NCc1ccc(Cl)cc1 | > 100 µM | –
10 | CC[C@H](C)[C@@H](CO)NC(=O)Cc1ccc(Cl)cc1 | > 100 µM | –
11 | CC[C@H](C)[C@@H](CO)NS(=O)(=O)c1ccccc1Cl | 56.6 µM | –
12 | CC[C@H](C)[C@H](NS(=O)(=O)c1ccc(Cl)cc1)C(=O)O | > 100 µM | –
13 | CC[C@H](C)[C@@H](CO)NS(=O)(=O)c1cc(Cl)ccc1Cl | 54.8 µM | –
14 | CC[C@H](C)[C@@H](CO)NC(=O)c1ccc(Cl)cc1 | > 100 µM | –
15 | CC[C@H](C)[C@@H](CO)NS(=O)(=O)c1ccc(OC(F)(F)F)cc1 | 23.5 µM | –
16 | CC(C)(C)[C@@H](CO)NS(=O)(=O)c1ccc(Cl)cc1 | 29.1 µM | –
17 | CC[C@H](C)[C@@H](CO)NS(=O)(=O)c1ccc(S(C)(=O)=O)cc1 | > 100 µM | –
18 | CC[C@H](C)[C@H](NS(=O)(=O)c1ccc(Cl)cc1)C(C)(C)O | > 100 µM | –
19 | CC[C@H](C)[C@H](NS(=O)(=O)c1ccc(Cl)cc1)C(C)O (some centres undefined) | 49.3 µM | –

Compounds with a lower EC50 [1], results first:

Row | EC50 [1] | Compound | further results
20 | 20.9 µM | CC[C@H](C)[C@@H](CO)NS(=O)(=O)c1ccc([N+](=O)[O-])cc1 | –
21 | 18.3 µM | CC[C@H](C)[C@@H](CO)NS(=O)(=O)c1cccc(Cl)c1 | –
22 | 15.3 µM | CC(C)C[C@@H](CO)NS(=O)(=O)c1ccc(Cl)cc1 | –
23 | 14.3 µM | CC[C@H](C)[C@@H](CO)NS(=O)(=O)c1ccc(C)cc1 | –
24 | 13.1 µM | CC[C@H](C)[C@@H](CO)NS(=O)(=O)c1ccc(C(F)(F)F)cc1 | –
25 | 12.2 µM | CCOC(=O)N1CCC(c2ccccc2)(S(=O)(=O)c2ccc(Cl)cc2)CC1 | EC50 [2]: 0.746 µM; Ratio EC50 [3]: 8.8
26 | 7.84 µM | CC[C@H](C)[C@@H](CO)NS(=O)(=O)c1ccc(Cl)c(F)c1 | –
27 | 6.02 µM | CC[C@H](C)[C@@H](CO)NS(=O)(=O)c1ccc(C(C)=O)cc1 | –
28 | 5.45 µM | CC[C@H](C)[C@@H](CO)NS(=O)(=O)c1ccc(Cl)cc1 | EC50 [2]: 20 µM
29 | 4.58 µM | CC(C)[C@@H](CO)NS(=O)(=O)c1ccc(Cl)cc1 | –
30 | 4.27 µM | CC[C@H](C)[C@@H](CO)NS(=O)(=O)c1cccc(Cl)c1Cl | –
31 | 4.24 µM | CC[C@H](C)[C@@H](CO)NS(=O)(=O)c1ccc(F)cc1 | –
32 | 4.15 µM | CC[C@H](C)[C@@H](CO)NS(=O)(=O)c1ccccc1 | –
33 | 2.21 µM | CC[C@H](C)[C@@H](CO)NS(=O)(=O)c1ccc(Br)cc1 | EC50 [2]: 20 µM
34 | 1.12 µM | O=S(=O)(N[C@H](CO)C1CCCCC1)c1ccc(Cl)cc1 | –
35 | 0.758 µM | CC[C@@H](C)[C@@H](CO)NS(=O)(=O)c1ccc(Cl)cc1 | –
36 | 0.294 µM | CCC(CC)[C@@H](CO)NS(=O)(=O)c1ccc(Cl)cc1 | EC50 [2]: 4.09 µM; Ratio EC50 [3]: 13.9
37 | 0.085 µM | CCCNC(=O)OC[C@@H](C)N(c1cc(Cl)ccc1CO)S(=O)(=O)c1ccc(Cl)cc1 | –
38 | 0.028 µM | CC(C)[C@H](O)C(=O)N[C@@H](C)C(=O)N[C@@H]1C(=O)N(C)CCc2ccccc21 | EC50 [2]: 0.063 µM
39 | 0.007 µM | C[C@H](c1ccc(F)cc1CCCC(=O)O)N(c1cc(F)ccc1F)S(=O)(=O)c1ccc(Cl)cc1 | Ratio EC50 [3]: 15
40 | 0.0003 µM | C[C@H](NC(=O)[C@@H](O)c1cc(F)cc(F)c1)C(=O)N[C@@H]1C(=O)N(C)N=Cc2ccccc21 | Ratio EC50 [4]: 0.5
